The values that follow come from US6521790B2, “Alkynyl amides and their therapeutic applications” (Abbott Laboratories, priority 2000, dated 2003).

For assay [1], the system named is pentylenetetrazole (PTZ) induced seizures. Description: Latency to and protection against PTZ induced seizures in mice. The settings on record: compound 1400 μmol/kg intra-peritoneally; for Time to Seizure: average time for PTZ induced seizure, male CD1 mice, PTZ 85 mg/kg s.c., observed 15 minutes; for Number of Mice Protected: number of mice out of ten that did not seize within 15 minutes after PTZ 85 mg/kg s.c. Type of assay: in vivo. How it is done: Male CD1 mice (Charles River, Portage, Mich.) weighing 25-35 g were used and during the experiment the mice were housed individually in clear polycarbonate cages for observation. For each experiment, ten mice were each pretreated intra-peritoneally with a compound of the present invention (1400 μmol/kg) prior to pentylenetetrazole (PTZ) (Sigma, St. Louis, Mo.) injection. Seizures were induced by the subcutaneous injection of PTZ (85 mg/kg) just below the nape of the neck. […] The data in Table 1 represents the average time for PTZ induced seizure. […] Control animals were not pretreated with a compound of the present invention but were injected with PTZ (85 mg/kg) subcutaneously.

The subject of assay [2] is electrical shock induced seizures. The assay can be described thus: Maximum Electrical Shock Method (MES). Type of assay: in vivo. Particulars: oral, male CD1 mice. The source says:
Male CD1 mice (Charles River) weighing from 25-35 g were used. Mice were pretreated orally with compounds of the present invention prior to electrical stimulation. Mice were challenge by pulsed electrical stimulation (50 mA, 0.4 s duration, pulse width 0.5 ms, 60 pulses/sec) via corneal electrodes to induce seizure. The stimulation was delivered with an ECT Unit (Ugo Basile #7801). The electrodes of the unit were coated with electrocardiogram electrolyte (Signa Creme, Parker Labs #1708) to ensure good contact with the corneas. Mice were observed post-stimulation for the onset of seizures and death. […] Animals which gave a positive seizure response were observed an additional 30 seconds for death. […] The percent protection from seizures was calculated by dividing the number of protected mice by the total number of mice for the group. The percentage of mice protected from electrical shock induced seizures at doses of 600, 1200, 1800 and 2400 μmole/kg is illustrated in Table 3 for Example 1 and Example 6. The corresponding acid, (2R)-2-propyl-4-hexynoic acid, was also tested for comparison.

The conditions of assay [3]: one study, compared with valproic acid; cited from earlier work.
The conditions of assay [4]: reported in literature (Abbott, Tang, Palaty 1997); cited from earlier work.

As to `CC#CC[C@@H](CCC)C(=O)N[C@H](C(N)=O)C(C)C` [Example 2, (2R)-N-[(1S)-1-(aminocarbonyl)-2-methylpropyl]-2-propyl-4-hexynamide], in assay [1], the “Time to Seizure” value is 305 s and the “Number of Mice Protected” value was determined as 1.
For `CC#CC[C@@H](CCC)C(=O)N[C@H](C)C(N)=O` [Example 5, (2R)-N-[(1R)-2-amino-1-methyl-2-oxoethyl]-2-propyl-4-hexynamide], in that order: 525 s and 2.
As to `CC#CC[C@@H](CCC)C(N)=O` [Example 6, (2R)-2-propyl-4-hexynamide], the “Percentage of Mice Protected Against Electrical Shock Induced Seizures” value (from here on “Percentage”) was determined as 0% in assay [2] (dose 600 μmole/kg), 20% in assay [2] (dose 1200 μmole/kg) and 90% in assay [2] (dose 1800 μmole/kg). In addition, the “Time to Seizure” value in assay [1] is reported as “No Seizures”. Also, in assay [1], the “Number of Mice Protected” value turned out to be 10.
`CC#CCC(CCC)C(=O)O` (stereo not shown) [2-propyl-4-hexynoic acid]: in assay [3], the “Antiepileptic effect and duration of activity” value was “effective antiepileptic with a longer duration of activity”.
For the compound `CC#CC[C@@H](CCC)C(=O)O` [(2R)-2-propyl-4-hexynoic acid, reference compound], the “Percentage” value in assay [2] (dose 600 μmole/kg) amounted to 0%; in assay [2] (dose 1200 μmole/kg) it was 0%; in assay [2] (dose 1800 μmole/kg) it was 0%; in assay [2] (dose 2400 μmole/kg), 20%.
`CCCC(F)(CCC)C(=O)O` [2-fluoro-2-propylpentanoic acid]: in assay [4], the “Anticonvulsant potency relative to VPA” value is “less potent than VPA”.
For the compound `CC#CC[C@@H](CCC)C(=O)NCC(N)=O` [Example 1, (2R)-N-(2-amino-2-oxoethyl)-2-propyl-4-hexynamide], the “Percentage” value in assay [2] (dose 600 μmole/kg) is on record as 0%; in assay [2] (dose 1200 μmole/kg), 70%; in assay [2] (dose 1800 μmole/kg), 90%; in assay [2] (dose 2400 μmole/kg), 100%. For the same compound, the “Time to Seizure” value in assay [1] came to 675 s. Moreover, in assay [1], the “Number of Mice Protected” value was determined as 5.
For the compound `CC#CC[C@@H](CCC)C(=O)N[C@@H](C)C(N)=O` [Example 4, (2R)-N-[(1S)-2-amino-1-methyl-2-oxoethyl]-2-propyl-4-hexynamide], in assay [1], the “Time to Seizure” value turned out to be 610 s and the “Number of Mice Protected” value was 6.
For `CC#CC[C@@H](CCC)C(=O)N[C@@H](CC(C)C)C(N)=O` [Example 3, (2R)-N-[(1S)-1-(aminocarbonyl)-3-methylbutyl]-2-propyl-4-hexynamide], in assay [1], the “Time to Seizure” value stood at 575 s and the “Number of Mice Protected” value was 4.
